The record followed here is US20230057033A1, “FLUOROGENIC BETA-LACTAMASE SUBSTRATE AND ASSOCIATED DETECTION METHOD” (MOLSID, priority 2019, published 2023).

The test system of the experiment is β-lactamase. The experiment can be described thus: Detection of fluorescence of compound 15 with β-lactamase (microwell plate, plate fluorimeter). Type of experiment: biochemical. The settings on record: 75 μ, 37° C., 10 U.mL^−1, fluorescence measured over time, FIG. 1. How it is done:
The fluorescence of compound 15 was evaluated with and without a β-lactamase. The test was performed by incubation/chemical reaction in a microwell plate (75 μ, 37° C., 10 U.mL^−1). The fluorescence was measured over time by a plate fluorimeter.

`O=C(Cc1cccs1)N[C@@H]1C(=O)N2C(C(=O)O)=C(COC(=O)NCC3CCCCN3C(=O)Oc3ccc(Cl)cc3-c3nc4ccc(Cl)cc4c(=O)[nH]3)CS[C@H]12` (stereo partly shown) [Compound 15]: the “fluorescence generated in the presence of β-lactamase (hydrolysis, fragmentation and release of ELF 97)” value was “intense fluorescence”.
